Results: EP0326331B1, “Substituted quinolines and cinnolines” (Dow AgroSciences LLC, priority 1988, dated 1989)

Experiments:
Assay type in all cases: in vivo
[1] = tested on: Erysiphe graminis tritici (powdery mildew); test: Test 1 greenhouse foliar spray screen, powdery mildew on wheat; conditions: disease control rating, foliar spray on wheat, 400 ppm (+++ at 100 ppm)
[2] = tested on: Botrytis cinerea (gray mold); test: Test 1 greenhouse foliar spray screen, gray mold on grape berries; conditions: disease control rating, spray on grape berries, 400 ppm (+++ at 100 ppm)
[3] = tested on: Pyricularia oryzae (rice blast); test: whole plant or invertebrate; conditions: disease control rating, foliar spray on rice, 400 ppm (+++ at 100 ppm)
[4] = tested on: Pseudoperonospora cubensis (downy mildew); test: Test 1 greenhouse foliar spray screen, downy mildew on squash; conditions: disease control rating, foliar spray on squash, 400 ppm (+++ at 100 ppm)
[5] = tested on: Puccinia recondita tritici (leaf rust); test: Test 1 greenhouse foliar spray screen, leaf rust on wheat; conditions: disease control rating, foliar spray on wheat, 400 ppm (+++ at 100 ppm)
[6] = tested on: southern armyworm (Spodopetra eridania Cramer); test: Mite/insect screen, SAW; conditions: Spodoptera eridania, percent mortality, SAW, read-out: SAW RESULTS %; for mortality at 200 ppm: SM & MA RATE 200 PPM; for mortality at 400 ppm: SM & MA RATE 400 PPM
Summary of the method: (§1)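 Compounds dissolved in acetone/alcohol (50:50) with TOXIMUL R and S emulsifiers, diluted in water to test concentrations, and sprayed to runoff on both leaf surfaces at 10 psi, then dried 1 h. For armyworm, excised treated leaves were offered to larvae; percent mortality scored after standard exposure periods.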

[7] = tested on: Twospotted spider mites (Tetranychus urticae Koch); test: Mite/insect screen, SM; conditions: Tetranychus urticae, percent mortality, SAW, read-out: SM RESULTS %; for mortality at 200 ppm: SM & MA RATE 200 PPM; for mortality at 400 ppm: SM & MA RATE 400 PPM
Summary of the method: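 Compounds dissolved in 50:50 acetone/alcohol containing sulfonate/nonionic emulsifier blends, then diluted with water to the indicated concentrations. Leaves sprayed on both surfaces to runoff at 10 psi and dried one hour. Percent mortality scored after standard exposure periods.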

[8] = tested on: Cercospora beticola (leaf spot); test: Test 1 greenhouse foliar spray screen, leaf spot on sugar beet; conditions: disease control rating, foliar spray on sugar beet, 400 ppm (+++ at 100 ppm)
[9] = tested on: melon aphids (Aphis gossypii Glover); test: Mite/insect screen, MA; conditions: Aphis gossypii, percent mortality, SAW, read-out: MA RESULTS %; for mortality at 200 ppm: SM & MA RATE 200 PPM; for mortality at 400 ppm: SM & MA RATE 400 PPM
Summary of the method: as §1

[10] = tested on: Venturia inaequalis (apple scab); test: Test 1 greenhouse foliar spray screen, apple scab on apple seedling; conditions: disease control rating, foliar spray on apple seedling, 400 ppm (+++ at 100 ppm)
[11] = tested on: Septoria tritici (leaf blotch); test: Test 1 greenhouse foliar spray screen, leaf blotch on wheat; conditions: disease control rating, foliar spray on wheat, 400 ppm (+++ at 100 ppm)
corn rootworm = test: Mite/insect screen, CRW; conditions: percent mortality, read-out: CRW RESULTS %; for mortality at 12 ppm: CRW RATE 12.00 PPM; for mortality at 24 ppm: CRW RATE 24.00 PPM
Summary of the method: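 Compounds dissolved in 50:50 acetone/alcohol with TOXIMUL R and S emulsifiers (23 and 13 g/L), then diluted in water to the stated test concentrations. Percent mortality of corn rootworm scored after standard exposure periods.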

Row | Compound | POWD MDEW [1] | GRAY MOLD [2] | RICE BLAST [3] | DOWN MDEW [4] | LEAF RUST [5] | mortality at 200 ppm [6] [%] | mortality at 200 ppm [7] [%] | LEAF SPOT [8] | mortality at 200 ppm [9] [%] | APPL SCAB [10] | LEAF BLOT [11] | mortality at 12 ppm (corn rootworm) [%] | mortality at 400 ppm [6] [%] | mortality at 400 ppm [7] [%] | mortality at 400 ppm [9] [%] | mortality at 24 ppm (corn rootworm) [%]
1 | CC(CNc1ccnc2c(F)cccc12)(c1ccccc1)c1ccccc1 [Example 80, N-(2,2-diphenylpropyl)-8-fluoro-4-quinolinamine] | + (20-89% control at 400 ppm) | - (0-19% control at 400 ppm) | ++ (90-100% control at 400 ppm) | +++ (90-100% control at 100 ppm) | ++ (90-100% control at 400 ppm) | 0 | 0 | + (20-89% control at 400 ppm) | 0 | - (0-19% control at 400 ppm) | - (0-19% control at 400 ppm) | 0 | – | – | – | –
2 | CCC(CNc1ccnc2c(F)cccc12)c1ccccc1 (stereo not drawn) [Example 81, 8-fluoro-N-(2-phenylbutyl)-4-quinolinamine] | + (20-89% control at 400 ppm) | - (0-19% control at 400 ppm) | ++ (90-100% control at 400 ppm) | +++ (90-100% control at 100 ppm) | ++ (90-100% control at 400 ppm) | 0 | 0 | + (20-89% control at 400 ppm) | 0 | - (0-19% control at 400 ppm) | - (0-19% control at 400 ppm) | 0 | – | – | – | –
3 | Fc1cccc2c(NCCc3ccccc3Cl)ccnc12 [Example 82, N-[2-(2-chlorophenyl)ethyl]-8-fluoro-4-quinolinamine] | + (20-89% control at 400 ppm) | - (0-19% control at 400 ppm) | +++ (90-100% control at 100 ppm) | +++ (90-100% control at 100 ppm) | +++ (90-100% control at 100 ppm) | 0 | 0 | + (20-89% control at 400 ppm) | 0 | - (0-19% control at 400 ppm) | +++ (90-100% control at 100 ppm) | 0 | – | – | – | –
4 | Fc1cccc2c(NCCc3ccc(C(F)(F)F)cc3)ccnc12 [Example 83, 8-fluoro-N-[2-[4-(trifluoromethyl)phenyl]ethyl]-4-quinolinamine] | + (20-89% control at 400 ppm) | +++ (90-100% control at 100 ppm) | ++ (90-100% control at 400 ppm) | ++ (90-100% control at 400 ppm) | +++ (90-100% control at 100 ppm) | 0 | 0 | + (20-89% control at 400 ppm) | 0 | - (0-19% control at 400 ppm) | - (0-19% control at 400 ppm) | 0 | – | – | – | –
5 | COc1ccc(CCNc2ccnc3cc(Cl)ccc23)cc1 [Example 84, 7-chloro-N-[2-(4-methoxyphenyl)ethyl]-4-quinolinamine] | +++ (90-100% control at 100 ppm) | - (0-19% control at 400 ppm) | ++ (90-100% control at 400 ppm) | ++ (90-100% control at 400 ppm) | ++ (90-100% control at 400 ppm) | 10 | 0 | + (20-89% control at 400 ppm) | 0 | - (0-19% control at 400 ppm) | - (0-19% control at 400 ppm) | 0 | 0 | 0 | 0 | 0
6 | Cc1ccc(CCNc2ccnc3c(Cl)cccc23)cc1 [Example 87, 8-chloro-N-[2-(4-methylphenyl)ethyl]-4-quinolinamine] | - (0-19% control at 400 ppm) | - (0-19% control at 400 ppm) | - (0-19% control at 400 ppm) | +++ (90-100% control at 100 ppm) | + (20-89% control at 400 ppm) | 0 | 0 | - (0-19% control at 400 ppm) | 0 | - (0-19% control at 400 ppm) | - (0-19% control at 400 ppm) | 0 | 0 | 0 | 0 | 0
7 | Cc1ccc2c(NCCc3ccc(Cl)cc3)ccnc2c1C [Example 88, N-[2-(4-chlorophenyl)ethyl]-7,8-dimethyl-4-quinolinamine] | - (0-19% control at 400 ppm) | - (0-19% control at 400 ppm) | - (0-19% control at 400 ppm) | ++ (90-100% control at 400 ppm) | ++ (90-100% control at 400 ppm) | 0 | 0 | + (20-89% control at 400 ppm) | 0 | - (0-19% control at 400 ppm) | - (0-19% control at 400 ppm) | 0 | 0 | 0 | 0 | 0
8 | Fc1cccc2c(NCCc3ccccc3)c(Br)cnc12 [Example 91, 3-bromo-8-fluoro-N-(2-phenylethyl)-4-quinolinamine] | + (20-89% control at 400 ppm) | - (0-19% control at 400 ppm) | + (20-89% control at 400 ppm) | ++ (90-100% control at 400 ppm) | - (0-19% control at 400 ppm) | 0 | 0 | - (0-19% control at 400 ppm) | 0 | - (0-19% control at 400 ppm) | - (0-19% control at 400 ppm) | 0 | – | – | – | –
9 | CC(Cc1ccccc1)Nc1ccnc2c(F)cccc12 (stereo not drawn) [Example 92, 8-fluoro-H-(1-methyl-2-phenylethyl)-4-quinolinamine] | + (20-89% control at 400 ppm) | - (0-19% control at 400 ppm) | ++ (90-100% control at 400 ppm) | ++ (90-100% control at 400 ppm) | +++ (90-100% control at 100 ppm) | 0 | 0 | + (20-89% control at 400 ppm) | 0 | - (0-19% control at 400 ppm) | +++ (90-100% control at 100 ppm) | 0 | – | – | – | –
10 | Clc1cc(NCCc2ccccc2)c2cccc(Cl)c2n1 [Example 93, 2,8-dichloro-N-(2-phenylethyl)-4-quinolinamine] | - (0-19% control at 400 ppm) | - (0-19% control at 400 ppm) | - (0-19% control at 400 ppm) | - (0-19% control at 400 ppm) | - (0-19% control at 400 ppm) | 0 | 0 | + (20-89% control at 400 ppm) | 0 | - (0-19% control at 400 ppm) | + (20-89% control at 400 ppm) | 0 | – | – | – | –
